Paper PMC4061319 (Biotechnology for Biofuels, 2014)

Legend:
[1] = molecular target: T1, SdCBP (cellobiose phosphorylase from Saccharophagus degradans) (Saccharophagus degradans, UniProt Q21L49); test: initial rates of phosphorolysis from continuous G1P colorimetric assay, non-linear regression; type: biochemical; settings: no xylose; 5 mM inorganic phosphate, 20 mM MES pH 6.0, 30°C, 10 nM enzyme
T1 construct: gene cep94A; CBP is a homodimer

[2] = molecular target: T1, SdCBP (cellobiose phosphorylase from Saccharophagus degradans); test: competition assay of cellobiose phosphorolysis at […] xylose; type: biochemical; settings: mixed inhibitor versus cellobiose; 5 mM inorganic phosphate, 20 mM MES pH 6.0, 30°C

T1 sequence (Q21L49 entry or part of it): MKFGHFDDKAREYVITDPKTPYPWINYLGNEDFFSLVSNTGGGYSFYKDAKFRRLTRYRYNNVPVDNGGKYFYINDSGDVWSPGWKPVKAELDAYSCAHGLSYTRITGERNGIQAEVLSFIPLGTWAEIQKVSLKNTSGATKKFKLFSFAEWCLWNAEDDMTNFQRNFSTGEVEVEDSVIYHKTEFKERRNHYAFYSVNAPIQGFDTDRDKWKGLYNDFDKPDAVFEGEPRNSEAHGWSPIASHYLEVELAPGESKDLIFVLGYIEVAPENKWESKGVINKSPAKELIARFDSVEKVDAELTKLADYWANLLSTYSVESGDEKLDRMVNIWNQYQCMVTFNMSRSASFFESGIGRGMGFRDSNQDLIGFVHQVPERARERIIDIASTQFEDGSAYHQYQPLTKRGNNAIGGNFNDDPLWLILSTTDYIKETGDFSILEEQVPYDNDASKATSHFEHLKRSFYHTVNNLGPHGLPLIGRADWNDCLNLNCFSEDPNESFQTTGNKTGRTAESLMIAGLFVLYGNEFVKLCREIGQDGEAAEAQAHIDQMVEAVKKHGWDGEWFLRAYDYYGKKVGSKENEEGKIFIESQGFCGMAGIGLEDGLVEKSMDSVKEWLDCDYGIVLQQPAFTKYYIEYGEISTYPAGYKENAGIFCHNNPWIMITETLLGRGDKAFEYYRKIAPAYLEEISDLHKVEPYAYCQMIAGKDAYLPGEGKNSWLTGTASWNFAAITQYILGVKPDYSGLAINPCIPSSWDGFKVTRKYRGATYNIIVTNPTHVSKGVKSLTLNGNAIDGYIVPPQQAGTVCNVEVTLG

SMILES	KM,app [1]	competition assay of cellobiose phosphorolysis at 0, 2.5 and 5 mM xylose [2]
OC[C@H]1O[C@@H](O[C@H]2[C@H](O)[C@@H](O)C(O)O[C@@H]2CO)[C@H](O)[C@@H](O)[C@@H]1O (some centres unmarked) [cellobiose]	Initial rates of cellobiose phosphorolysis were calculated from the amount of G1P produced	
OC1OC[C@@H](O)[C@H](O)[C@H]1O (some centres unmarked) [xylose]		identifying xylose as a mixed-inhibitor for the cellobiose phosphorolysis reaction
